Laboratory results from patent publication US11629139B2 (priority 2017, dated 2023).
Where two headings read alike, the source gives them in different places.

Tested on: vesicular stomatitis virus particles (VSV) pseudotyped with EboV Zaire GP
Experiment: microbe, parasite or virus in culture
Assay type: cell-based

Structure (SMILES) | IC50 (Vesicular stomatitis virus) | IC50 (read-out: IC50)
O=C(CC12CC3CC(CC(C3)C1)C2)NCC(=O)N1CCN(Cc2cc(Br)ccc2O)CC1 [Compound 1026] | 300 to 500 nM | 
COC(=O)c1ccc(COc2ccc(Br)cc2CN2CCN(C(=O)CNC(=O)CC34CC5CC(CC(C5)C3)C4)CC2)cc1 [Compound 1111] | 13 nM | 
COC(=O)c1ccc(COc2ccc(F)cc2CN2CCN(C(=O)CNC(=O)CC34CC5CC(CC(C5)C3)C4)CC2)cc1 [Compound 1112] | < 2000 nM | 
COC(=O)c1ccc(COc2ccc([N+](=O)[O-])cc2CN2CCN(C(=O)CNC(=O)CC34CC5CC(CC(C5)C3)C4)CC2)cc1 [Compound 1113] | < 2000 nM | 
COC(=O)c1ccc(COc2ccc(C)cc2CN2CCN(C(=O)CNC(=O)CC34CC5CC(CC(C5)C3)C4)CC2)cc1 [Compound 1114] | < 2000 nM | 
COC(=O)c1ccc(COc2ccc(OC)cc2CN2CCN(C(=O)CNC(=O)CC34CC5CC(CC(C5)C3)C4)CC2)cc1 [Compound 1115] | 1400 nM | 
COC(=O)c1ccc(COc2ccc(C#N)cc2CN2CCN(C(=O)CNC(=O)CC34CC5CC(CC(C5)C3)C4)CC2)cc1 [Compound 1117] | 50 nM | 
COC(=O)c1ccc(COc2ccc(Cl)cc2CN2CCN(C(=O)CNC(=O)CC34CC5CC(CC(C5)C3)C4)CC2)cc1 [Compound 1118] | 1 nM | 
COC(=O)c1ccc(COc2ccccc2C(C)N2CCN(C(=O)CNC(=O)CC34CC5CC(CC(C5)C3)C4)CC2)cc1 (centres unmarked) [Compound 1122] | ~2000 nM | 
COC(=O)c1ccc(CCc2ccccc2CN2CCN(C(=O)CNC(=O)CC34CC5CC(CC(C5)C3)C4)CC2)cc1 [Compound 1123] | 20 nM | 
O=C(Cc1cccc2ccccc12)NCC(=O)N1CCN(Cc2ccccc2OCc2ccc(Br)cc2)CC1 [Compound 1136] | > 2000 nM | 
CC(C)(CC(=O)NCC(=O)N1CCN(Cc2ccccc2OCc2ccc(Br)cc2)CC1)C1CCCCC1 [Compound 1138] | > 2000 nM | 
O=C(CC12CC3CC(C1)CC(c1ccccc1)(C3)C2)NCC(=O)N1CCN(Cc2ccccc2OCc2ccc(Br)cc2)CC1 [Compound 1141] | 700 nM | 
CC1(CC(=O)NCC(=O)N2CCN(Cc3ccccc3OCc3ccc(Br)cc3)CC2)CCCCC1 [Compound 1142] | 520 nM | 
O=C(CC12CC3CC(CC(Cl)(C3)C1)C2)NCC(=O)N1CCN(Cc2ccccc2OCc2ccc(Br)cc2)CC1 [Compound 1243] | 500 nM | 
O=C(CC12CC3CC(CC(O)(C3)C1)C2)NCC(=O)N1CCN(Cc2ccccc2OCc2ccc(Br)cc2)CC1 [Compound 1244] | 500 nM | 
O=C(CC12CC3CC(CC(Br)(C3)C1)C2)NCC(=O)N1CCN(Cc2ccccc2OCc2ccc(Br)cc2)CC1 [Compound 1245] | 600 nM | 
O=C(CC12CC3CC(C1)CC(n1cncn1)(C3)C2)NCC(=O)N1CCN(Cc2ccccc2OCc2ccc(Br)cc2)CC1 [Compound 1246] | < 2000 nM | 
O=C(CC12CC3CC(CC(C3)C1)C2)NCC(=O)N1CCN(Cc2cc(Cl)ccc2O)CC1 [Compound 1249, 2-((1R,3R,5S)-Adamantan-1-yl)-N-(2-(4-(5-chloro-2-hydroxybenzyl)piperazin-1-yl)-2-oxoethyl)acetamide] | 200 nM | 
Nc1ccc(CN2CCN(C(=O)CNC(=O)CC34CC5CC(CC(C5)C3)C4)CC2)cc1Cl [Compound 1250] | 800 nM | 
CN(C)c1ccc(CN2CCN(C(=O)CNC(=O)CC34CC5CC(CC(C5)C3)C4)CC2)cc1Cl [Compound 1251] | 1700 nM | 
Nc1cc(OCc2ccc(Br)cc2)c(CN2CCN(C(=O)CNC(=O)CC34CC5CC(CC(C5)C3)C4)CC2)cc1Cl [Compound 1252] | 800 nM | 
COC(=O)c1ccc(/C=C/c2ccccc2CN2CCN(C(=O)CNC(=O)CC34CC5CC(CC(C5)C3)C4)CC2)cc1 [Compound 1253] | 1500 nM | 
O=C(CNC(=O)C12CC3(F)CC(F)(CC(F)(C3)C1)C2)N1CCN(Cc2ccccc2OCc2ccc(Br)cc2)CC1 [Compound 1255] | 400 nM | 

Structure (SMILES) | IC50 (Vesicular stomatitis virus) | IC50 (read-out: IC50)
CNS(=O)(=O)c1ccc(COc2ccccc2CN2CCN(C(=O)CNC(=O)CC34CC5CC(CC(C5)C3)C4)CC2)cc1 [Compound 1257] | 300 nM | 
CN(C)S(=O)(=O)c1ccc(COc2ccccc2CN2CCN(C(=O)CNC(=O)CC34CC5CC(CC(C5)C3)C4)CC2)cc1 [Compound 1258] | 400 nM | 
N#Cc1ccc(COc2ccccc2CN2CCN(C(=O)CNC(=O)CC34CC5CC(CC(C5)C3)C4)CC2)cc1 [Compound 1259] | 700 nM | 
NC(=O)c1ccc(COc2ccccc2CN2CCN(C(=O)CNC(=O)CC34CC5CC(CC(C5)C3)C4)CC2)cc1 [Compound 1260] | 700 nM | 
COC(=O)c1ccc(COc2ccccc2CN2CCN(C(=O)CNC(=O)CC3CCC(F)(F)CC3)CC2)cc1 [Compound 1275, Methyl 4-((2-((4-((2-(4,4-difluorocyclohexyl)acetyl)glycyl)piperazin-1-yl)methyl)phenoxy)methyl)benzoate] | 50 nM | 
COC(=O)c1ccc(COc2ccccc2CN2CCN(C(=O)CNC(=O)CC34CC5CC(C3)CC(C(=O)O)(C5)C4)CC2)cc1 [Compound 1277, (1s,3r,5R,7S)-3-(2-((2-(4-(2-((4-(Methoxycarbonyl)benzyl)oxy)benzyl)piperazin-1-yl)-2-oxoethyl)amino)-2-oxoethyl)adamantane-1-carboxylic acid] | > 2000 nM | 
COC(=O)c1ccc(COc2ccccc2CN2CCN(C(=O)CNC(=O)CC(C)(C)C(F)(F)F)CC2)cc1 [Compound 1278, Methyl 4-((2-((4-((4,4,4-trifluoro-3,3-dimethylbutanoyl)glycyl)piperazin-1-yl)methyl)phenoxy)methyl)benzoate] | > 2000 nM | 
COC(=O)c1ccc(COc2ccccc2CN2CCN(C(=O)CNC(=O)CC(C)(C)c3ccccc3)CC2)cc1 [Compound 1279] | 1500 nM | 
COC(=O)c1ccc(COc2ccccc2CN2CCN(C(=O)CNC(=O)C3CCC(F)(F)CC3)CC2)cc1 [Compound 1298] | 1500 nM | 
CC(=O)N1CCC(COc2ccc(Cl)cc2CN2CCN(C(=O)CNC(=O)CC34CC5CC(CC(C5)C3)C4)CC2)CC1 [Compound 1301, N-(2-(4-(2-((1-acetylpiperidin-4-yl)methoxy)-5-chlorobenzyl)piperazin-1-yl)-2-oxoethyl)-2-((3r,5r,7r)-adamantan-1-yl)acetamide] | 400 nM | 
COC(=O)COc1ccc(Cl)cc1CN1CCN(C(=O)CNC(=O)CC23CC4CC(CC(C4)C2)C3)CC1 [Compound 1302, Methyl 2-(2-((4-((2-((1R,3R,5S)-adamantan-1-yl)acetyl)glycyl)piperazin-1-yl)methyl)-4-chlorophenoxy)acetate] | > 2000 nM | 
COC(=O)CCCOc1ccc(Cl)cc1CN1CCN(C(=O)CNC(=O)CC23CC4CC(CC(C4)C2)C3)CC1 [Compound 1303, Methyl 4-(2-((4-((2-((1R,3R,5S)-Adamantan-1-yl)acetyl)glycyl)piperazin-1-yl)methyl)-4-chlorophenoxy)butanoate] | ~2000 nM | 
Nc1ncc(Cl)cc1CN1CCN(C(=O)CNC(=O)CC23CC4CC(CC(C4)C2)C3)CC1 [Compound 1304, 2-((1R,3R,5S)-Adamantan-1-yl)-N-(2-(4-((2-amino-5-chloropyridin-3-yl)methyl)piperazin-1-yl)-2-oxoethyl)acetamide] | > 1500 nM | 
O=C(CC12CC3CC(CC(C3)C1)C2)NCC(=O)N1CCN(Cc2cc(Cl)ccc2F)CC1 [Compound 1305, 2-((1R,3R,5S)-Adamantan-1-yl)-N-(2-(4-(5-chloro-2-fluorobenzyl)piperazin-1-yl)-2-oxoethyl)acetamide] | 360 nM | 
O=C(CC12CC3CC(CC(C3)C1)C2)NCC(=O)N1CCN(Cc2c(F)ccc(Cl)c2F)CC1 [Compound 1306, 2-((1R,3R,5S)-Adamantan-1-yl)-N-(2-(4-(3-chloro-2,6-difluorobenzyl)piperazin-1-yl)-2-oxoethyl)acetamide] | 1350 nM | 
O=C(CC12CC3CC(CC(C3)C1)C2)NCC(=O)N1CCN(Cc2cc(Cl)c(F)cc2F)CC1 [Compound 1307, 2-((1R,3R,5S)-Adamantan-1-yl)-N-(2-(4-(5-chloro-2,4-difluorobenzyl)piperazin-1-yl)-2-oxoethyl)acetamide] | 370 nM | 
O=C(CC12CC3CC(CC(C3)C1)C2)NCC(=O)N1CCN(Cc2cc(Cl)ccc2C(F)(F)F)CC1 [Compound 1308, 2-((1R,3R,5S)-Adamantan-1-yl)-N-(2-(4-(5-chloro-2-(trifluoromethyl)benzyl)piperazin-1-yl)-2-oxoethyl)acetamide] |  | > 2000 nM
O=C(CC12CC3CC(CC(C3)C1)C2)NCC(=O)N1CCN(Cc2cc(Cl)ccc2OC(F)(F)F)CC1 [Compound 1309, 2-((1R,3R,5S)-Adamantan-1-yl)-N-(2-(4-(5-chloro-2-(trifluoromethoxy)benzyl)piperazin-1-yl)-2-oxoethyl)acetamide] | 420 nM | 
COC(=O)c1cccc(-c2ccc(O)c(CN3CCN(C(=O)CNC(=O)CC45CC6CC(CC(C6)C4)C5)CC3)c2)c1 [Compound 1310, Methyl 3′-((4-((2-((1R,3R,5S)-adamantan-1-yl)acetyl)glycyl)piperazin-1-yl)methyl)-4′-hydroxy-[1,1′-biphenyl]-3-carboxylate] | 310 nM | 
COC(=O)c1ccc(COc2ccccc2CN2CCN(C(=O)CNC(=O)CC3(C)CCCCC3)CC2)cc1 [Compound 1311, Methyl 4-((2-((4-((2-(1-methylcyclohexyl)acetyl)glycyl)piperazin-1-yl)methyl)phenoxy)methyl)benzoate] | 80 nM | 
COC(=O)c1ccc(COc2ccccc2CN2CCN(C(=O)CNC(=O)Cc3ccc(F)cc3)CC2)cc1 [Compound 1312, Methyl 4-((2-((4-((2-(4-fluorophenyl)acetyl)glycyl)piperazin-1-yl)methyl)phenoxy)methyl)benzoate] | 600 nM | 
COC(=O)c1ccc(COc2ccccc2CN2CCN(C(=O)CNC(=O)CC3CC(F)(F)C3)CC2)cc1 [Compound 1315, Methyl 4-((2-((4-((2-(3,3-difluorocyclobutyl)acetyl)glycyl)piperazin-1-yl)methyl)phenoxy)methyl)benzoate] | 400 nM | 
COC(=O)c1ccc(COc2ccccc2CN2CCN(C(=O)CNC(=O)C3CC34CCCCC4)CC2)cc1 (centres unmarked) [Compound 1316, Methyl 4-((2-((4-((spiro[2.5]octane-1-carbonyl)glycyl)piperazin-1-yl)methyl)phenoxy)methyl)benzoate] | 70 nM | 
